Reference: article PMC6982817, “Substituted N-(Pyrazin-2-yl)benzenesulfonamides; Synthesis, Anti-Infective Evaluation, Cytotoxicity, and In Silico Studies” (Molecules, 2019)
≈ marks a conversion by molar mass, not a printed value. Like-named read-outs stand apart in the source and are kept apart here. Each block holds one compound with its values, some of them ahead of it.

How the values were obtained:
[1] = test system: Mycobacterium tuberculosis H37Rv CNCTC My 331/88 (ATCC 27294); details: cited from earlier work; for Antimycobacterial Activity MIC against Mtb H37Rv, Amide: previously published pyrazinecarboxamides, methodology not identical; for Antimycobacterial Activity MIC against Mtb H37Rv, Retro-amide: previously published N-pyrazinylbenzamides
[2] = test system: Mycobacterium smegmatis DSM 43465 (ATCC 607); assay: Antimycobacterial microdilution assay, M. smegmatis; format: cell-based; details: Middlebrook 7H9 broth, resazurin after 48 hours; for MIC: Mycolicibacterium smegmatis, 48 h, read-out: Antimycobacterial Activity MIC M. smeg
[3] = test system: Mycobacterium aurum DSM 43999 (ATCC 23366); assay: Antimycobacterial microdilution assay, M. aurum; format: cell-based; details: Middlebrook 7H9 broth, resazurin after 72 hours; for MIC: Mycolicibacterium aurum, 72 h
[4] = test system: Staphylococcus aureus CCM 4223 (ATCC 29213); assay: Antibacterial microdilution broth, S. aureus; format: cell-based; details: 48 h, read-out: MIC against Staphylococcus aureus
[5] = test system: Staphylococcus aureus methicillin-resistant CCM 4750 (ATCC 43300); assay: Antibacterial microdilution broth, MRSA; format: cell-based; details: 48 h, read-out: MIC against Staphylococcus aureus methicillin resistant
[6] = test system: Enterococcus faecalis CCM 4224 (ATCC 29212); assay: Antibacterial microdilution broth, E. faecalis; format: cell-based; details: 48 h, read-out: MIC against Enterococcus faecalis
[7] = test system: Escherichia coli CCM 3954 (ATCC 25922); assay: Antibacterial microdilution broth, E. coli; format: cell-based; details: 48 h, read-out: MIC against Escherichia coli
[8] = test system: Pseudomonas aeruginosa CCM 3955 (ATCC 27853); assay: Antibacterial microdilution broth, P. aeruginosa; format: cell-based; details: 48 h, read-out: MIC against Pseudomonas aeruginosa
[9] = test system: Staphylococcus epidermidis 112-2016; assay: Antibacterial microdilution broth, S. epidermidis; format: cell-based; details: Staphylococcus epidermidis, 1122016, 48 h; read-out: MIC against Staphylococcus epidermidis
[10] = test system: Klebsiella pneumoniae 64-2016; assay: Antibacterial microdilution broth, K. pneumoniae; format: cell-based; details: Klebsiella pneumoniae, 642016, 48 h; read-out: MIC against Klebsiella pneumonia
[11] = test system: Serratia marcescens 62-2016; assay: Antibacterial microdilution broth, S. marcescens; format: cell-based; details: Serratia marcescens, 622016, 48 h; read-out: MIC against Serratia marcescens
[12] = test system: Mycobacterium tuberculosis H37Rv CNCTC My 331/88 (ATCC 27294); assay: Antimycobacterial microplate alamar blue assay, M. tuberculosis H37Rv; format: cell-based; details: for MIC: Mycobacterium tuberculosis
[13] = test system: M. kansasii CNCTC My 235/80 (ATCC 12478); assay: Antimycobacterial microplate alamar blue assay, M. kansasii; format: cell-based, Mycobacterium kansasii; details: Mycobacterium kansasii
[14] = test system: M. avium ssp. avium CNCTC My 80/72 (ATCC 15769); assay: Antimycobacterial microplate alamar blue assay, M. avium; format: cell-based, Mycobacterium avium; details: for MIC: Mycobacterium avium
in vitro = details: human
physchem [15] = assay: physchem
physchem [16] = assay: physchem; remark: listed apart in the source
HepG2 cells = details: cited from earlier work
[17] = test system: four Gram-positive and four Gram-negative bacterial strains; assay: Antibacterial screening, microdilution broth, panel of eight strains; format: cell-based; details: concentration scale 500–0.97 μM
[18] = test system: C. krusei CCM 8271 (ATCC 6258); assay: Antifungal microdilution broth, C. krusei; format: cell-based, Candida krusei; details: Pichia kudriavzevii, 48 h; read-out: MIC against C. krusei
[19] = test system: C. parapsilosis CCM 8260 (ATCC 22019); assay: Antifungal microdilution broth, C. parapsilosis; format: cell-based, Candida parapsilosis; details: Lodderomyces parapsilosis, 48 h; read-out: MIC against C. parapsilosis
[20] = test system: C. tropicalis CCM 8264 (ATCC 750); assay: Antifungal microdilution broth, C. tropicalis; format: cell-based; details: Candida tropicalis, 48 h; read-out: MIC against C. tropicalis
[21] = test system: Aspergillus flavus CCM 8363; assay: Antifungal microdilution broth, A. flavus; format: cell-based; details: CCM8363, 48 h, read-out: MIC against Aspergillus flavus
[22] = test system: Lichtheimia corymbifera CCM 8077; assay: Antifungal microdilution broth, L. corymbifera; format: cell-based; details: CCM8077, 48 h, read-out: MIC against Lichtheimia corymbifera
[23] = test system: Trichophyton interdigitale CCM 8377 (ATCC 9533); assay: Antifungal microdilution broth, T. interdigitale; format: cell-based; details: 72 h, read-out: MIC against Trichophyton interdigitale
[24] = test system: Candida albicans CCM 8320 (ATCC 24433); assay: Antifungal microdilution broth, C. albicans; format: cell-based; details: 48 h, read-out: MIC against Candida albicans
[25] = test system: Aspergillus fumigatus ATCC 204305; assay: Antifungal microdilution broth, A. fumigatus; format: cell-based; details: ATCC204305, 48 h, read-out: MIC against Aspergillus fumigatus
[26] = pH 6.6, Middlebrook 7H9 broth pH 6.6, alamar blue, read-out: Antimycobacterial Activity MIC Mtb H37Rv
[27] = ATCC12478, pH 6.6, Middlebrook 7H9 broth pH 6.6, alamar blue, read-out: Antimycobacterial Activity MIC M. kansasii
[28] = ATCC15769, pH 6.6, Middlebrook 7H9 broth pH 6.6, alamar blue, read-out: Antimycobacterial Activity MIC M. avium
[29] = Middlebrook 7H9 broth pH 6.6, alamar blue
[30] = ATCC12478, molar value printed beside μg/mL in text, read-out: MIC M. kansasii

SMILES: O=C(Nc1ccccc1)c1cncc(Cl)n1 [Amide R^1 6-Cl R^2 H]
- Antimycobacterial Activity MIC against Mtb H37Rv, Amide [1]: >100 µg/mL

SMILES: COc1ccc(NC(=O)c2cnccn2)cc1 [Amide R^1 H R^2 4-OCH3]
- Antimycobacterial Activity MIC against Mtb H37Rv, Amide [1]: 25 µg/mL

SMILES: O=C(Nc1ccccc1)c1cnccn1 [Amide R^1 H R^2 H]
- Antimycobacterial Activity MIC against Mtb H37Rv, Amide [1]: 100 µg/mL

SMILES: O=C(O)c1cn(C2CC2)c2cc(N3CCNCC3)c(F)cc2c1=O [CPX]
- Antimycobacterial Activity MIC M. smeg [2]: 0.125 µg/mL
- MIC [2]: 0.0625 to 0.125 µg/mL (≈ 0.189 to 0.377 µM)
- Antimycobacterial Activity MIC M. aurum [3]: 0.008 µg/mL
- MIC [3]: 0.00781 to 0.0156 µg/mL (≈ 0.0236 to 0.0472 µM)
- MIC [4]: 0.128 to 0.256 µg/mL (≈ 0.386 to 0.773 µM)
- MIC [5]: 0.128 µg/mL (≈ 0.386 µM)
- MIC [6]: 0.512 µg/mL (≈ 1.55 µM)
- MIC [7]: 0.008 µg/mL (≈ 0.0241 µM)
- MIC [8]: 0.128 µg/mL (≈ 0.386 µM)
- MIC [9]: > 1.02 µg/mL
- MIC [10]: > 1.02 µg/mL
- MIC [11]: 0.256 µg/mL (≈ 0.773 µM)

SMILES: COc1ccc(S(=O)(=O)Nc2cncc(Cl)n2)cc1 [Compound 6b, N-(6-chloropyrazin-2-yl)-4-methoxybenzenesulfonamide]
- MIC [12, 26]: > 100 µg/mL
- MIC [13, 27]: 100 µg/mL
- MIC [14, 28]: > 100 µg/mL
- MIC [2]: ≥ 500 µg/mL
- MIC [3]: ≥ 500 µg/mL
- IC50 at 24 h (in vitro): > 1 mM
- pKa (physchem [15]): 6.95
- pKa (physchem [16]): 7.21

SMILES: Cc1cc(C)c(S(=O)(=O)Nc2cncc(Cl)n2)c(C)c1 [Compound 9b, N-(6-chloropyrazin-2-yl)-2,4,6-trimethylbenzenesulfonamide]
- MIC [12, 26]: > 100 µg/mL
- MIC [13, 27]: 50 µg/mL
- MIC [14, 28]: > 100 µg/mL
- MIC [2]: ≥ 500 µg/mL
- MIC [3]: ≥ 500 µg/mL
- melting point: 179.7 to 180.2 °C
- IC50 at 24 h (in vitro): 0.179 mM
- pKa (physchem [15]): 6.32
- pKa (physchem [16]): 6.38

SMILES: O=S(=O)(Nc1cncc(Cl)n1)c1ccc2ccccc2c1 [Compound 13b, N-(6-chloropyrazin-2-yl)naphthalene-2-sulfonamide]
- MIC [12, 26]: 50 µg/mL
- MIC [13, 27]: 50 µg/mL
- MIC [14, 28]: > 100 µg/mL
- MIC [2]: 125 µg/mL (≈ 391 µM)
- MIC [3]: 250 µg/mL (≈ 782 µM)
- melting point: 204.6 to 207 °C
- IC50 at 24 h (in vitro): > 1 mM
- pKa (physchem [15]): 5.63
- pKa (physchem [16]): 5.75

SMILES: NNC(=O)c1ccncc1 [INH, reference compound]
- Antimycobacterial Activity MIC Mtb H37Rv [12, 29]: 0.2 µg/mL
- MIC [12, 26]: 0.1 to 0.2 µg/mL
- MIC [13, 30]: 182 µM
- Antimycobacterial Activity MIC M. avium [14, 29]: 12.5 µg/mL
- MIC [14, 28]: 6.25 to 12.5 µg/mL
- IC50 (HepG2 cells): 79 mM

SMILES: NC(=O)c1cnccn1 [PZA, reference compound]
- MIC [12, 26]: > 100 µg/mL
- MIC [13, 27]: > 100 µg/mL
- MIC [14, 28]: > 100 µg/mL
- MIC [2]: ≥ 500 µg/mL
- MIC [3]: ≥ 500 µg/mL
- IC50 (HepG2 cells): > 10 mM

SMILES: O=C(Nc1cncc(Cl)n1)c1ccccc1 [Retro-amide R^1 6-Cl R^2 H]
- Antimycobacterial Activity MIC against Mtb H37Rv, Retro-amide [1]: 25 µg/mL

SMILES: COc1ccc(C(=O)Nc2cnccn2)cc1 [Retro-amide R^1 H R^2 4-OCH3]
- Antimycobacterial Activity MIC against Mtb H37Rv, Retro-amide [1]: >100 µg/mL

SMILES: O=C(Nc1cnccn1)c1ccccc1 [Retro-amide R^1 H R^2 H]
- Antimycobacterial Activity MIC against Mtb H37Rv, Retro-amide [1]: >100 µg/mL

SMILES: Cc1cc(NS(=O)(=O)c2ccc(N)cc2)no1 [Sulfamethoxazole, 4-amino-N-(5-methylisoxazol-3-yl)benzenesulfonamide, reference compound]
- MIC [12, 26]: 3.13 µg/mL
- MIC ([12]; read-out: MIC Mtb H37Rv): 12 µM
- MIC [13, 30]: 12 µM
- MIC [13, 27]: 3.13 µg/mL
- MIC ([14]; ATCC15769, molar value printed beside μg/mL in text, read-out: MIC M. avium): 49 µM
- MIC [14, 28]: 12.5 µg/mL
- MIC [2]: 250 µg/mL (≈ 987 µM)
- MIC [3]: ≥ 500 µg/mL
- antibacterial activity MIC [17]: not active against any of the tested bacterial strains

- MIC [18]: 1 µg/mL (≈ 1.08 µM)
- MIC [19]: 0.5 µg/mL (≈ 0.541 µM)
- MIC [20]: 1 µg/mL (≈ 1.08 µM)
- MIC [21]: 8 µg/mL (≈ 8.66 µM)
- MIC [22]: 0.5 µg/mL (≈ 0.541 µM)
- MIC [23]: 2 µg/mL (≈ 2.16 µM)
SMILES: C[C@@H]1[C@H](O)[C@@H](C)/C=C/C=C/C=C/C=C/C=C/C=C/C=C/[C@H](O[C@@H]2O[C@H](C)[C@@H](O)[C@H](N)[C@@H]2O)C[C@@H]2O[C@](O)(C[C@@H](O)C[C@@H](O)[C@H](O)CC[C@@H](O)C[C@@H](O)CC(=O)O[C@H]1C)C[C@H](O)[C@H]2C(=O)O [amphotericin B]

- MIC [4]: 1 µg/mL (≈ 2.09 µM)
- MIC [5]: 16 to 32 µg/mL (≈ 33.5 to 67 µM)
- MIC [6]: 8 µg/mL (≈ 16.8 µM)
- MIC [7]: 1 to 2 µg/mL (≈ 2.09 to 4.19 µM)
- MIC [8]: 0.5 µg/mL (≈ 1.05 µM)
- MIC [9]: > 8 µg/mL
- MIC [10]: > 8 µg/mL
- MIC [11]: 2 µg/mL (≈ 4.19 µM)
SMILES: CNC(C)C1CCC(N)C(OC2C(N)CC(N)C(OC3OCC(C)(O)C(NC)C3O)C2O)O1 (stereo not drawn) [gentamicin]

- MIC [24]: > 16 µg/mL
- MIC [18]: 0.5 µg/mL (≈ 1.43 µM)
- MIC [19]: 8 µg/mL (≈ 22.9 µM)
- MIC [20]: > 16 µg/mL
- MIC [21]: > 16 µg/mL
- MIC [22]: > 16 µg/mL
- MIC [23]: > 16 µg/mL
- MIC [25]: 1 µg/mL (≈ 2.86 µM)
SMILES: C[C@@H](c1ncncc1F)[C@](O)(Cn1cncn1)c1ccc(F)cc1F [voriconazole]
